Assay results: the SangsterLogP compilation

logP | Compound
0.35 | Nc1nc(Cl)nc2nc[nH]c12
0.69 | OC[C@H]1O[C@@H](n2cnc3ccccc32)C[C@@H]1O
3 | OCC1OC(n2cnc3c(NC4CCCCC4)nc(Cl)nc32)CC1O (stereo not given)
0.55 | OC[C@H]1O[C@@H](n2nnc3ccccc32)C[C@@H]1O
0.38 | Nc1nc(Cl)nc2c1ccn2[C@H]1C[C@H](O)[C@@H](CO)O1
0.9 | Nc1nc(Cl)nc2c1nc(Br)n2C1CC(O)C(CO)O1 (stereo not given)
1.16 | CCn1cnc2c(N)nc(Cl)nc21
0.47 | OCCNc1nc(Cl)nc2c1ncn2[C@H]1C[C@@H](O)[C@@H](CO)O1
2.48 | OCC1OC(n2cnc3c(NCc4ccccc4)nc(Cl)nc32)CC1O (stereo not given)
0.38 | Nc1nc(Cl)nc2c1cnn2[C@H]1C[C@H](O)[C@@H](CO)O1
0.41 | Nc1nc(Br)nc2c1ncn2C1CC(O)C(CO)O1 (stereo not given)
-0.68 | Nc1ncnc2c1ncn2[C@H]1C[C@H](O)[C@@H](CO)O1
-0.01 | Nc1ncnc2ncn([C@H]3C[C@H](O)[C@@H](CO)O3)c12
0.91 | CNc1nc(Cl)nc2c1ncn2[C@H]1C[C@H](O)[C@@H](CO)O1
1.06 | OC[C@H]1O[C@@H](n2nc3ccccc3n2)C[C@@H]1O
